Measured values as given in patent US8697705B2, “Isoindolinone derivatives” (Hoffmann-La Roche Inc., priority 2011, dated 2014).

Experiments:
[1] = biological target: T1, Recombinant human liver GK1 (GST-GK) (Homo sapiens, UniProt P35557); assay: Glucokinase in vitro assay (G6PDH-coupled, NADH generation, OD340); format: biochemical; details: 30° C., 5 mM D-glucose, 10% dimethylsulfoxide
T1 construct: made in house; host or cells: E. coli
T1 sequence (P35557 1-466 isoform P35557-2): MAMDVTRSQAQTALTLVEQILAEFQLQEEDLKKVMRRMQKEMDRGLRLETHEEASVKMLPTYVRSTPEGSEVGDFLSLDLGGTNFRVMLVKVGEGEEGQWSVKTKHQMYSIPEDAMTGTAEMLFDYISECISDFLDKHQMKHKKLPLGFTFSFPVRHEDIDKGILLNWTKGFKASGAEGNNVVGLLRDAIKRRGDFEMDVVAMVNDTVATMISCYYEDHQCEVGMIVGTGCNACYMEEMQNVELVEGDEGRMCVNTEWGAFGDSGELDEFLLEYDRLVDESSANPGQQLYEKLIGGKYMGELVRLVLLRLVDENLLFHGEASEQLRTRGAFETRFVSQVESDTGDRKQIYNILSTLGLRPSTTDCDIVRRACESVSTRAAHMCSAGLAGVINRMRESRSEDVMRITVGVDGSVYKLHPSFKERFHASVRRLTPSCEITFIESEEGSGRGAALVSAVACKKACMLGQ
Method: Glucokinase In Vitro Assay Protocol:
Glucokinase (GK) was assayed by coupling the production of glucose-6-phosphate to the generation of NADH with glucose-6-phosphate dehydrogenase (G6PDH, 0.75-1 kunits/mg; Boehringer Mannheim, Indianapolis, Ind.) from Leuconostoc mesenteroides as the coupling enzyme (Scheme 2).
Recombinant human liver GK1 was expressed in E. coli as a glutathione S-transferase fusion protein (GST-GK) and was purified by chromatography over a glutathione-Sepharose 4B affinity column using the procedure provided by the manufacturer (Amersham Pharmacia Biotech, Piscataway, N.J.).
The assay was conducted at 30° C. in a flat bottom 96-well tissue culture plate from Costar (Cambridge, Mass.) with a final incubation volume of 120 μL. The incubation reaction contained the following: 25 mM Hepes buffer (pH 7.1), 25 mM KCl, 5 mM D-glucose, 1 mM ATP, 1.8 mM NAD, 2 mM MgCl2, 1 μM sorbitol-6-phosphate, 1 mM dithiothreitol, test drug or 10% dimethylsulfoxide, ˜7 units/ml G6PDH, and GK (see below). All organic reagents were >98% pure and were from Boehringer Mannheim with the exceptions of D-glucose and Hepes which were from Sigma Chemical Co, St Louis, Mo. Test compounds were dissolved in dimethylsulfoxide and were added to the incubation reaction minus GST-GK in a volume of 12 μL to yield a final dimethylsulfoxide concentration of 10%. This mix was pre-incubated in the temperature controlled chamber of a SPECTRAmax 250 microplate spectrophotometer (Molecular Devices Corporation, Sunnyvale, Calif.) for 10 minutes to allow temperature equilibrium and then the reaction was started by the addition of 20 μL GST-GK.
After addition of enzyme, the increase in optical density (OD) at 340 nm was monitored spectrophotometrically to determine the rate of change (OD340 per min). The GK activity (OD340/min) in control wells (10% dimethylsulfoxide minus GK activators) was compared with the activity in wells containing test GK activators, and the concentration of activator that produced a 50% increase in the activity of GK, i.e., the SC1.5, was calculated.

[2] = system: C57BL/6J mice; assay: Glucokinase activator in vivo screen: blood glucose lowering after oral gavage in mice; details: Mus musculus, C57B6 mice, read-out: % gluc lowering @ 2 H; for change in vivo at 25 mg/kg: vs. control at 2 hours post 25 mg/kg oral dose
Method: Glucokinase Activator In Vivo Screen Protocol in Lean Mice:
Lean C57BL/6J mice were orally dosed via gavage with Glucokinase (GK) activator following a two hour fasting period. Blood glucose determinations were made at various (e.g. 0, 1, 2, 4 and 8 hours post-oral gavage) times during the study.
C57Bl/6J mice were obtained from Jackson Laboratory (Bar Harbor, Me.) and were maintained in a light-dark cycle with lights on from 0600-1800 hr. For studies in lean mice, the mice were received at age ten weeks and given ad libitum access to control diet (LabDiet 5001 chow, PMI Nutrition, Brentwood, Mo.), and were at least age 11 weeks at the time of study. For studies in the DIO model, the mice were received at age five weeks and given ad libitum access to Bio-Sery F3282 High Fat Diet (Frenchtown, N.J.), and were at least age 16 weeks at the time of study. The experiments were conducted during the light phase of the light-dark cycle. Mice (n=6) are weighed and fasted for a two hour period prior to oral treatment. GK activators are formulated in Gelucire vehicle (Ethanol:Gelucire44/14:PEG400q.s. 4:66:30 v/w/v). For studies in lean mice, the mice were dosed orally with 5.0 μL per gram of body weight (i.e. 5 ml/kg×10.0 mg/ml formulation to equal a 50 mg/kg dose). For studies in DIO mice, the mice were dosed orally with 5.0 μL per gram of body weight (i.e. 5.0 ml/kg×5 mg/ml formulation to equal a 25 mg/kg dose). Immediately prior to dosing, a pre-dose (time zero) blood glucose reading was acquired by snipping off a small portion of the animal's tail and collecting 15 μL blood into a heparinized capillary tube for analysis. Following GK activator administration, additional blood glucose readings were taken at various time points post dose from the same tail wound. Results were interpreted by comparing the mean blood glucose values of vehicle treated mice with GK activator treated mice over the study period.
Table 2 below provides data for % glucose lowering of a representative number of compounds of the present invention vs. control at 2 hours post 25 or 50 mg/kg dose in C57B6 mice: […]

Row | Compound | SC1.5 (concentration of activator that produced a 50% increase in the activity of GK) [1] | change in vivo at 25 mg/kg [2] | change in vivo at 50 mg/kg ([2]; vs. control at 2 hours post 50 mg/kg oral dose)
1 | COC(C)(C)Cn1ccc(NC(=O)[C@H](CC2CCCC2)N2Cc3c(cccc3C(F)(F)F)C2=O)n1 [Example 7, (S)-3-Cyclopentyl-N-[1-(2-methoxy-2-methyl-propyl)-1H-pyrazol-3-yl]-2-(1-oxo-4-trifluoromethyl-1,3-dihydro-isoindol-2-yl)-propionamide] | 0.032 µM | -48.2% | 
2 | CC(C)OCCn1ccc(NC(=O)[C@H](CC2CCCC2)N2Cc3c(cccc3C(F)(F)F)C2=O)n1 [Example 17, (S)-3-Cyclopentyl-N-[1-(2-isopropoy-ethyl)-1H-pyrazol-3-yl]-2-(1-oxo-4-trifluoromethyl-1,3-dihydro-isoindol-2-yl)-propionamide] | 0.179 µM | -40.2% | 
3 | COCCn1ccc(NC(=O)[C@H](CC2CCCCC2)N2Cc3c(F)cccc3C2=O)n1 [Example 18, (S)-3-Cyclohexyl-2-(4-fluoro-1-oxo-1,3-dihydro-isoindol-2-yl)-N-[1-(2-methoxy-ethyl)-1H-pyrazol-3-yl]-propionamide] | 0.962 µM | -25.4% | 
4 | O=C(Nc1cnc([C@H](O)CO)cn1)[C@H](CC1CCCC1)N1Cc2c(cccc2C(F)(F)F)C1=O [Example 21, (S)-3-Cyclopentyl-N-[5-((S)-1,2-dihydroxy-ethyl)-pyrazin-2-yl]-2-(1-oxo-4-trifluoromethyl-1,3-dihydro-isoindol-2-yl)-propionamide] | 0.255 µM | -36.6% | 

Further lines, with some results ahead:

Row | SC1.5 (concentration of activator that produced a 50% increase in the activity of GK) [1] | Compound | change in vivo at 25 mg/kg [2] | change in vivo at 50 mg/kg ([2]; vs. control at 2 hours post 50 mg/kg oral dose)
5 | 0.328 µM | COCCn1ccc(NC(=O)[C@H](CC2CCCC2)N2Cc3c(cccc3C(F)(F)F)C2=O)n1 [Example 13, (S)-3-Cyclopentyl-N-[1-(2-methoxy-ethyl)-1H-pyrazol-3-yl]-2-(1-oxo-4-trifluoromethyl-1,3-dihydro-isoindol-2-yl)-propionamide] |  | -45.2%
6 | 0.176 µM | O=C(Nc1cnccn1)[C@H](CC1CCCC1)N1Cc2c(cccc2C(F)(F)F)C1=O [Example 15, (S)-3-Cyclopentyl-2-(1-oxo-4-trifluoromethyl-1,3-dihydro-isoindol-2-yl)-N-pyrazin-2-yl-propionamide] | -22.5% | 
